{"source": "patent US7531195B2", "about": "“Schisandrin B preparation” (priority 2005, dated 2009)", "key": {"[1]": {"test_system": "Hsp70", "assay": "Hsp70 expression in H9c2 cells (Western blot)", "assay_type": "cell-based, rat", "conditions": "6.25 μM", "protocol": "(§1) H9c2 cells, a permanent cell line derived from cardiac myoblasts of rat embryo, have early been characterized as a suitable model of myocardial cells [Hescheler et al. 1991]. H9c2 cells were cultured as monolayers in Dulbecco's modified Eagle's medium (GIBCO BRL) supplemented with 10% (v/v) fetal bovine serum. The medium contained glucose (4.5 g/L) and glutamine (4.5 mM), supplemented with NaHCO3 (17 mM), penicillin (100 IU/ml), and streptomycin (100 μg/ml). Cells were grown under an atmosphere of 5% CO2 in air at 37° C. The medium was replaced by fresh medium every 2 or 3 days. A stock of cells was grown in a 75 cm culture flask and split before confluence at a subcultivation ratio of 1:10. Cells used for experiments were seeded at a density of 3.75×10^4 cells/well on a 12-well culture plate, and the cells were grown for 24 h to about 80% confluence prior to drug treatment.\n(§2) Cultured H9c2 cells were treated with (−) Schisandrin B, (+) Schisandrin B or (±) Schisandrin B (dissolved in DMSO) at 6.25 μM (0.2% DMSO final concentration) for increasing periods of time. Control cells were given the vehicle (i.e. DMSO) only.\n(§3) Immediately following the drug treatment, the cells were washed twice with 0.5 ml cold PBS and treated with 100 μl lysis buffer containing 20 mM Tris HCl, 3 mM EGTA, 1% Triton X-100, 10% glycerol and 2 mM dithiothreitol, pH 7.5, with freshly added protease inhibitors (1 mM phenylmethylsulfonyl fluoride, 0.1 mM benzamide, 5 μg/ml leupeptin, 5 μg aproptinin and 5 μg/ml pepstain A). The mixture was incubated at 4° C. for 15 min with constant shaking. Then the cells were scraped off from the plate, and the extract was transferred to a microcentrifuge tube for centrifugation at 2,400 g for 3 min at 4° C. The resultant supernatant was used for Hsp analysis. Hsp25 and Hsp70 levels was estimated by Western blot analysis using specific antibodies (anti-Hsp25, catalog #SPA-801; anti-Hsp70, catalog #SPA-812) from StressGen (Vancouver, BC, Canada) following SDS-PAGE analysis cell lysates, using a separating gel of 10% acrylamide as described in Ip et. al. [2001]. Hsp25/27 and Hsp70 (human recombinant proteins from StressGen) and actin (bovine muscle from Sigma) were used as markers for reference. […] All immuno-blots were analyzed by densitometry, and the amounts (arbitrary units) of Hsp were normalized with reference to actin levels (arbitrary units) in the sample."}, "[2]": {"test_system": "H9c2 cells", "assay": "Cellular GSH level in H9c2 cells, time course, with or without xanthine/xanthine oxidase (X/XO) challenge", "assay_type": "cell-based, rat", "conditions": "6.25 μM", "protocol": "as §1\n(§4) Cultured H9c2 cells were treated with (−) Schisandrin B, (+) Schisandrin B or (±) Schisandrin B (dissolved in DMSO) at 6.25 μM (0.2% DMSO final concentration) for increasing periods of time. Control cells were given the vehicle (i.e. DMSO) only. Immediately following the drug or vehicle pretreatment, the cells were challenged with a mixture of xanthine (X) (0.1 mM) and xanthine oxidase (XO) (0.4 U/ml) for 4 h. The control cells were treated with the medium only. After the X/XO challenge, the medium was taken for the measurement of LDH activity, a biochemical index of cellular injury.\n(§5) The cells were washed twice with 0.5 ml cold phosphate-buffered saline (PBS), An aliquot (200 μl) of 3% sulfonsalicyclic acid was then added, and the mixture was incubate at 4° C. for 10 min. After centrifuging at 300 g for 15 min at 4° C., the supernatant was used for GSH measurement by an enzymatic method of Griffith (1980)."}, "[3]": {"test_system": "H9c2 cells", "assay": "Menadione-induced toxicity (LDH) in H9c2 cells", "assay_type": "cell-based, rat", "protocol": "as §1\n(§6) Cultured H9c2 cells were treated with (−) Schisandrin B, (+) Schisandrin B or (±) Schisandrin B (dissolved in DMSO) at 6.25 μM (0.2% DMSO final concentration) for 16 h. Control cells were given the vehicle (i.e. DMSO) only. Immediately following the drug or vehicle pretreatment, the cells were challenged with menadione (dissolved in ethanol) at 12.5 μM (0.2% ethanol final concentration) for 4 h. The control cells were treated with the medium containing 0.2% ethanol only. After the menadione challenge, the medium was taken for the measurement of LDH activity, an biochemical index of cell injury."}, "[4]": {"test_system": "H9c2 cells", "assay": "Cytotoxicity test in H9c2 cells (trypan blue, LDH leakage, WST)", "assay_type": "cell-based", "conditions": "100 μM; 24 h", "protocol": "as §1\nCultured H9c2 cells were treated with (−) Schisandrin B or (+) Schisandrin B (dissolved in DMSO) at 6.25 μM (0.2% DMSO final concentration) at increasing concentrations or at increasing concentrations for 24 h. Control cells were given the vehicle (i.e. DMSO) only.\nCell viability was evaluated by trypan blue staining (dead cells) and LDH leakage as well as WST staining (viable cells)."}, "[5]": {"test_system": "H9c2 cells", "assay": "Xanthine/xanthine oxidase-induced cytotoxicity (LDH leakage) in H9c2 cells", "assay_type": "cell-based, rat", "conditions": "X/XO challenge, 6.25 μM", "protocol": "as §1, §4"}, "[6]": {"test_system": "Hsp25", "assay": "Hsp25 expression in H9c2 cells (Western blot)", "assay_type": "cell-based, rat", "conditions": "6.25 μM", "protocol": "as §1, §2, §3"}, "[7]": {"test_system": "H9c2 cells", "assay": "Cellular GSH level in H9c2 cells with or without menadione challenge", "assay_type": "cell-based, rat", "protocol": "as §1, §6, §5"}, "[8]": {"conditions": "0 h post-dosing (unpretreated control)"}, "[9]": {"conditions": "X/XO challenge, 16 h post-dosing"}, "[10]": {"conditions": "MENADIONE 12.5 μM for 4 h, drug 6.25 μM for 16 h"}, "[11]": {"conditions": "NON-MENADIONE, 6.25 μM for 16 h"}}, "data": [{"smiles": "COc1cc2c(c(OC)c1OC)-c1c(cc3c(c1OC)OCO3)CC(C)C(C)C2", "note": "(single isomer, unassigned; (+)) [(+) Sch B, (+) Schisandrin B]", "values": [{"measurement": "Hsp 70 Level", "setting": "[1]; [8]", "value": "465 ± 14.3", "unit": "AU"}, {"measurement": "Hsp 70 Level", "setting": "[1]; 8 h post-dosing", "value": "576 ± 20.3", "unit": "AU"}, {"measurement": "Hsp 70 Level", "setting": "[1]; 16 h post-dosing", "value": "657 ± 13.4", "unit": "AU"}, {"measurement": "Hsp 70 Level", "setting": "[1]; 24 h post-dosing", "value": "834 ± 48.1", "unit": "AU"}, {"measurement": "Hsp 70 Level, percent increase vs unpretreated control (0 h)", "setting": "[1]; 24 h post-dosing", "value": "(79%)"}, {"measurement": "Hsp 70 Level", "setting": "[1]; 48 h post-dosing", "value": "656 ± 37.8", "unit": "AU"}, {"measurement": "GSH Level", "setting": "[2]; NON-X/XO, 0 h post-dosing (unpretreated control)", "value": "34.2 ± 2.41", "unit": "nmol/mg protein"}, {"measurement": "GSH Level", "setting": "[2]; NON-X/XO, 4 h post-dosing", "value": "38.3 ± 1.48", "unit": "nmol/mg protein"}, {"measurement": "GSH Level", "setting": "[2]; NON-X/XO, 8 h post-dosing", "value": "46.3 ± 0.85", "unit": "nmol/mg protein"}, {"measurement": "GSH Level", "setting": "[2]; NON-X/XO, 16 h post-dosing", "value": "73.9 ± 1.38", "unit": "nmol/mg protein"}, {"measurement": "GSH Level, percent increase vs unpretreated control (0 h)", "setting": "[2]; NON-X/XO, 16 h post-dosing", "value": "(117%)"}, {"measurement": "GSH Level", "setting": "[2]; NON-X/XO, 24 h post-dosing", "value": "66.7 ± 1.83", "unit": "nmol/mg protein"}, {"measurement": "GSH Level", "setting": "[2]; NON-X/XO, 48 h post-dosing", "value": "59.0 ± 2.94", "unit": "nmol/mg protein"}, {"measurement": "GSH Level", "setting": "[2]; X/XO challenge, 0 h post-dosing (unpretreated control)", "value": "13.9 ± 1.68", "unit": "nmol/mg protein"}, {"measurement": "GSH Level", "setting": "[2]; X/XO challenge, 4 h post-dosing", "value": "15.4 ± 0.55", "unit": "nmol/mg protein"}, {"measurement": "GSH Level", "setting": "[2]; X/XO challenge, 8 h post-dosing", "value": "16.8 ± 0.85", "unit": "nmol/mg protein"}, {"measurement": "GSH Level", "setting": "[2]; [9]", "value": "18.4 ± 0.33", "unit": "nmol/mg protein"}, {"measurement": "GSH Level, percent increase vs unpretreated control (0 h)", "setting": "[2]; [9]", "value": "(32%)"}, {"measurement": "GSH Level", "setting": "[2]; X/XO challenge, 24 h post-dosing", "value": "17.2 ± 0.36", "unit": "nmol/mg protein"}, {"measurement": "GSH Level", "setting": "[2]; X/XO challenge, 48 h post-dosing", "value": "14.1 ± 0.53", "unit": "nmol/mg protein"}, {"measurement": "LDH", "setting": "[3]; [10]", "value": "24.7 ± 0.56", "unit": "U/ml"}, {"measurement": "LDH, percent protection vs menadione control", "setting": "[3]; [10]", "value": "(30%)"}, {"measurement": "LDH", "setting": "[3]; [11]", "value": "13.5 ± 0.08", "unit": "U/ml"}, {"measurement": "percentage of cell death", "setting": "[4]", "value": 11, "unit": "%"}, {"measurement": "LDH Leakage", "setting": "[5]; [8]", "value": "35.7 ± 0.24", "unit": "U/L"}, {"measurement": "LDH Leakage", "setting": "[5]; 4 h post-dosing", "value": "31.3 ± 0.71", "unit": "U/L"}, {"measurement": "LDH Leakage", "setting": "[5]; 8 h post-dosing", "value": "25.2 ± 0.45", "unit": "U/L"}, {"measurement": "LDH Leakage", "setting": "[5]; 16 h post-dosing", "value": "19.4 ± 0.29", "unit": "U/L"}, {"measurement": "LDH Leakage, percent protection vs unpretreated control (0 h)", "setting": "[5]; 16 h post-dosing", "value": "(62%)"}, {"measurement": "LDH Leakage", "setting": "[5]; 24 h post-dosing", "value": "22.4 ± 1.07", "unit": "U/L"}, {"measurement": "LDH Leakage", "setting": "[5]; 48 h post-dosing", "value": "33.5 ± 0.17", "unit": "U/L"}, {"measurement": "Hsp 25 Level", "setting": "[6]; [8]", "value": "1722 ± 99", "unit": "AU"}, {"measurement": "Hsp 25 Level", "setting": "[6]; 8 h post-dosing", "value": "1832 ± 105", "unit": "AU"}, {"measurement": "Hsp 25 Level", "setting": "[6]; 16 h post-dosing", "value": "1498 ± 86", "unit": "AU"}, {"measurement": "Hsp 25 Level", "setting": "[6]; 24 h post-dosing", "value": "2168 ± 125", "unit": "AU"}, {"measurement": "Hsp 25 Level, percent increase vs unpretreated control (0 h)", "setting": "[6]; 24 h post-dosing", "value": "(26%)"}, {"measurement": "Hsp 25 Level", "setting": "[6]; 48 h post-dosing", "value": "1673 ± 97", "unit": "AU"}, {"measurement": "GSH Level", "setting": "[7]; [10]", "value": "24.5 ± 2.03", "unit": "nmol/mg protein"}, {"measurement": "GSH Level, percent increase vs menadione control", "setting": "[7]; [10]", "value": "(55%)"}, {"measurement": "GSH Level", "setting": "[7]; [11]", "value": "48.4 ± 0.60", "unit": "nmol/mg protein"}, {"measurement": "GSH Level, percent increase vs non-menadione control", "setting": "[7]; [11]", "value": "(41%)"}]}]}
